Assay results published in patent US12540129B2, “KIF18A inhibitors” (AMGEN INC., priority 2019, dated 2026).

Target: T1, Recombinant human KIF18A (1-467 His-tagged) protein (Homo sapiens, UniProt Q8NI77)
T1 construct: Recombinant human KIF18A (1-467 His-tagged) protein; His; made in house
Assay: KIF18A Enzyme Assay: microtubule-stimulated ATPase activity (ADP-Glo)
Assay type: biochemical
Settings: 30 nM KIF18A, 75 μM ATP
Method in brief: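 Recombinant human KIF18A (1-467, His-tagged), baculovirus-expressed, assayed for microtubule-stimulated ATPase activity; ADP formed detected by ADP-Glo luminescence. Compounds tested as 22-point 2-fold serial dilutions in DMSO. IC50 from four-parameter logistic fit.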

T1 sequence (Q8NI77 1-467): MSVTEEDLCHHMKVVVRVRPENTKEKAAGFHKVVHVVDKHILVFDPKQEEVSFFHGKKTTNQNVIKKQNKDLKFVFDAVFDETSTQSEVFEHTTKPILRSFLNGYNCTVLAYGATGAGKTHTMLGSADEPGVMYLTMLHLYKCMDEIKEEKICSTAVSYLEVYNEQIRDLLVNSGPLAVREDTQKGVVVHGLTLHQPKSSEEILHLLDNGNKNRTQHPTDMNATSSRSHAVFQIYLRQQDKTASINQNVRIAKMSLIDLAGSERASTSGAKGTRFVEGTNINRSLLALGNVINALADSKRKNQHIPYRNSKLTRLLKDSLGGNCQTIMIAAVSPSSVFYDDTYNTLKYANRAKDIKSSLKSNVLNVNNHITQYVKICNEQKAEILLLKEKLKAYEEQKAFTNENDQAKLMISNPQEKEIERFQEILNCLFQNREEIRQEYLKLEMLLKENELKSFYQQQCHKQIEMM
T1 sequence (P02550 whole entry partner): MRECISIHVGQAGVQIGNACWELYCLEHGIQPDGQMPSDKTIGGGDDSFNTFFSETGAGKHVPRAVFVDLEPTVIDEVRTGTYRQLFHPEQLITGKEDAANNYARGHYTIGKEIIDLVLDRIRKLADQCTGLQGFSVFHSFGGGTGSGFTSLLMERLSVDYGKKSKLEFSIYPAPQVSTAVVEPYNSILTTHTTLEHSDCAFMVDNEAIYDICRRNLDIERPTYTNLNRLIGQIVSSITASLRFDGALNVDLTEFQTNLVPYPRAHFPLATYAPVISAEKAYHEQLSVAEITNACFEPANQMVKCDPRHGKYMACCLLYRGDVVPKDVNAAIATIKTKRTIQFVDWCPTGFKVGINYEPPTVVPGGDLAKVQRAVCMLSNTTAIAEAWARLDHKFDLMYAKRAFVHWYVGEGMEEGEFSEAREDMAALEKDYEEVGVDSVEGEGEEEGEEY
T1 sequence (P02554 whole entry partner): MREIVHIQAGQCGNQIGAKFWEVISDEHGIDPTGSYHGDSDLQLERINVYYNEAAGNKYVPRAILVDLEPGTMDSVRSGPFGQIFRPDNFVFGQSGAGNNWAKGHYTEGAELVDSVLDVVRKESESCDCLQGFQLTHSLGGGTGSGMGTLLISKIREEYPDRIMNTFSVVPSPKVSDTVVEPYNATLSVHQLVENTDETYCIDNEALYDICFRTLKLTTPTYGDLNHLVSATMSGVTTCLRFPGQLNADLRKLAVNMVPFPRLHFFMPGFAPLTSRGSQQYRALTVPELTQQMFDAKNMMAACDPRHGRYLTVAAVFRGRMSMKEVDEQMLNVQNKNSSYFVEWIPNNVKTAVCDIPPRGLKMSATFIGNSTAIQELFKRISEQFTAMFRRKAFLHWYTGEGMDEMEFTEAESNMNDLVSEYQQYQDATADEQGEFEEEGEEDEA

| Structure (SMILES) | IC50 |
| --- | --- |
| Cc1cncc(-c2cc(NC(=O)c3ccc(NC(C)(C)CO)nc3N3CCC4(CC3)CC4)ccc2C)c1 [Example 111-13, 6-((1-hydroxy-2-methylpropan-2-yl)amino)-N-(4-methyl-3-(5-methylpyridin-3-yl)phenyl)-2-(6-azaspiro[2.5]octan-6-yl)nicotinamide] | 165 nM |
| CC(C)(C)NS(=O)(=O)c1cc(NC(=O)c2ccc(NC(C)(C)CO)nc2N2CCC3(CC2)CC3)cc(-c2ccco2)c1 [Example 112, N-(3-(N-(tert-butyl)sulfamoyl)-5-(furan-2-yl)phenyl)-6-((1-hydroxy-2-methylpropan-2-yl)amino)-2-(6-azaspiro[2.5]octan-6-yl)nicotinamide] | 170 nM |
| CC(C)(C)NS(=O)(=O)c1cc(NC(=O)c2ccc(NC(C)(C)CO)nc2N2CCC3(CC2)CC3)cc(C2CC2)c1 [Example 112-2, N-(3-(N-(tert-butyl)sulfamoyl)-5-cyclopropylphenyl)-6-((1-hydroxy-2-methylpropan-2-yl)amino)-2-(6-azaspiro[2.5]octan-6-yl)nicotinamide] | 633 nM |
| CC(C)(C)NS(=O)(=O)c1cc(NC(=O)c2ccc(NC(C)(C)CO)nc2N2CCC3(CC2)CC3)cc(-c2cccnc2)c1 [Example 112-3, N-(3-(N-(tert-butyl)sulfamoyl)-5-(pyridin-3-yl)phenyl)-6-((1-hydroxy-2-methylpropan-2-yl)amino)-2-(6-azaspiro[2.5]octan-6-yl)nicotinamide] | 561 nM |
| CC(C)(C)NS(=O)(=O)c1cccc(NC(=O)c2ccc(CS(C)(=O)=O)nc2N2CCC3(CC2)CC3)c1 [Example 113, N-(3-(N-(tert-butyl)sulfamoyl)phenyl)-6-((methylsulfonyl)methyl)-2-(6-azaspiro[2.5]octan-6-yl)nicotinamide] | 103 nM |
| CC(C)(C)NS(=O)(=O)c1cccc(NC(=O)c2ccncc2N2CCC3(CC2)CC3)c1 [Example 114, N-(3-(N-(tert-butyl)sulfamoyl)phenyl)-3-(6-azaspiro[2.5]octan-6-yl)isonicotinamide] | 114 nM |

Next, values leading:

| IC50 | Structure (SMILES) |
| --- | --- |
| 253 nM | O=C(Nc1cccc(S(=O)(=O)C2CCCC2)c1)c1ccncc1N1CCC2(CC1)CC2 [Example 114-1, N-(3-(cyclopentylsulfonyl)phenyl)-3-(6-azaspiro[2.5]octan-6-yl)isonicotinamide] |
| 735 nM | O=C(Nc1cccc(S(=O)(=O)C2CCCC2)c1)c1ccncc1N1CCC2(CC1)CC2(F)F [Example 114-2, N-(3-(cyclopentylsulfonyl)phenyl)-3-(1,1-difluoro-6-azaspiro[2.5]octan-6-yl)isonicotinamide] |
| 606 nM | Cc1ccc(NC(=O)c2ccncc2N2CCC3(CC2)CC3)cc1C(=O)N1CCCC(F)(F)C1 [Example 115, N-(3-(3,3-difluoropiperidine-1-carbonyl)-4-methylphenyl)-3-(6-azaspiro[2.5]octan-6-yl)isonicotinamide] |
| 577 nM | O=C(Nc1ccc(Br)c(C(=O)N2CCCC(F)(F)C2)c1)c1ccncc1N1CCC2(CC1)CC2 [Example 115-1, N-(4-bromo-3-(3,3-difluoropiperidine-1-carbonyl)phenyl)-3-(6-azaspiro[2.5]octan-6-yl)isonicotinamide] |
| 735 nM | O=C(Nc1ccc(Cl)c(C(=O)N2CCCC(F)(F)C2)c1)c1ccncc1N1CCC2(CC1)CC2 [Example 115-2, N-(4-chloro-3-(3,3-difluoropiperidine-1-carbonyl)phenyl)-3-(6-azaspiro[2.5]octan-6-yl)isonicotinamide] |
| 1670 nM | O=C(Nc1ccc(F)c(C(=O)N2CCCC(F)(F)C2)c1)c1ccncc1N1CCC2(CC1)CC2 [Example 115-3, N-(3-(3,3-difluoropiperidine-1-carbonyl)-4-fluorophenyl)-3-(6-azaspiro[2.5]octan-6-yl)isonicotinamide] |
| 1540 nM | Cc1ccc(NC(=O)c2ccncc2N2CCC3(CC2)CC3)cc1C(=O)N1CCC(F)(F)CC1 [Example 115-4, N-(3-(4,4-difluoropiperidine-1-carbonyl)-4-methylphenyl)-3-(6-azaspiro[2.5]octan-6-yl)isonicotinamide] |
| 1680 nM | O=C(Nc1cccc(C(=O)N2CCCC(F)(F)C2)c1)c1ccncc1N1CCC2(CC1)CC2 [Example 115-5, N-(3-(3,3-difluoropiperidine-1-carbonyl)phenyl)-3-(6-azaspiro[2.5]octan-6-yl)isonicotinamide] |
